Laboratory results from ChEMBL document CHEMBL5608244, “Preclinical Evaluation of Dihydropyrazole-Cored Positron Emission Tomography (PET) Ligands for Imaging of Receptor-Interacting Serine/Threonine Protein Kinase 1 (RIPK1) in the Brain” (J Med Chem, 2024).

Columns and labels:
[1] = Biodistribution in ICR mouse small intestine at 0.74 MBq, iv measured after 60 mins by automatic gamma counter analysis; format: ADME, organism-based; settings: in vivo, 1 h
[2] = Biodistribution in ICR mouse spleen at 0.74 MBq, iv measured after 10 mins by automatic gamma counter analysis; format: ADME, organism-based; settings: in vivo
[3] = Biodistribution in ICR mouse blood at 0.74 MBq, iv measured after 60 mins by automatic gamma counter analysis; format: ADME, organism-based; settings: in vivo, 1 h
[4] = Drug metabolism in mouse brain assessed as parent compound remaining at 13.5 MBq, iv measured after 30 mins by HPLC analysis; format: ADME, organism-based; settings: read-out: Activity
[5] = Biodistribution in ICR mouse liver at 0.74 MBq, iv measured after 2 mins by automatic gamma counter analysis; format: ADME, organism-based; settings: in vivo
[6] = Retention time of the compound by HPLC method; format: physicochemical
[7] = Drug uptake in thalamus of ICR mouse brain assessed as reduction in radioactivity incubated for 30 mins in presence of 0.5 uM of GSK'547 by Phosphor Imager analysis; format: ADME, tissue-based; set-up: scale not given: the % may be the effect or the level left; settings: 0.5 h
[8] = Drug metabolism in mouse plasma assessed as polar radiometabolites accumulation at 13.5 MBq, iv measured after 30 mins by HPLC analysis; format: ADME, organism-based; settings: 0.5 h
[9] = Drug metabolism in mouse liver assessed as polar radiometabolites accumulation at 13.5 MBq, iv measured after 30 mins by HPLC analysis; format: ADME, organism-based; settings: in vivo, 0.5 h
[10] = Biodistribution in ICR mouse pancreas at 0.74 MBq, iv measured after 2 mins by automatic gamma counter analysis; format: ADME, organism-based; settings: in vivo
[11] = Biodistribution in ICR mouse lung at 0.74 MBq, iv measured after 30 mins by automatic gamma counter analysis; format: ADME, organism-based; settings: in vivo, 0.5 h
[12] = Biodistribution in ICR mouse lung at 0.74 MBq, iv measured after 60 mins by automatic gamma counter analysis; format: ADME, organism-based; settings: in vivo, 1 h
[13] = Biodistribution in ICR mouse lung at 0.74 MBq, iv measured after 10 mins by automatic gamma counter analysis; format: ADME, organism-based; settings: in vivo
[14] = Biodistribution in ICR mouse stomach at 0.74 MBq, iv measured after 30 mins by automatic gamma counter analysis; format: ADME, organism-based; settings: in vivo, 0.5 h
[15] = Biodistribution in ICR mouse spleen at 0.74 MBq, iv measured after 60 mins by automatic gamma counter analysis; format: ADME, organism-based; settings: in vivo, 1 h
[16] = Drug uptake in thalamus of ICR mouse brain assessed as reduction in radioactivity at 0.5 to 10 uM incubated for 30 mins in presence of 1 uM of GSK'547 by Phosphor Imager analysis; format: ADME, tissue-based; set-up: scale not given: the % may be the effect or the level left; settings: 0.5 h, dose 0.5-10 µM
[17] = Biodistribution in ICR mouse lung at 0.74 MBq, iv measured after 2 mins by automatic gamma counter analysis; format: ADME, organism-based; settings: in vivo
[18] = Biodistribution in ICR mouse pancreas at 0.74 MBq, iv measured after 30 mins by automatic gamma counter analysis; format: ADME, organism-based; settings: in vivo, 0.5 h
[19] = Stability in Balb/c mouse plasma measured for 60 to 150 mins by reversed-phase HPLC analysis; format: ADME; settings: time 60-150 min
[20] = Biodistribution in ICR mouse bone at 0.74 MBq, iv measured after 2 mins by automatic gamma counter analysis; format: ADME, organism-based, Bone element; settings: in vivo
[21] = Biodistribution in ICR mouse blood at 0.74 MBq, iv measured after 10 mins by automatic gamma counter analysis; format: ADME, organism-based; settings: in vivo
[22] = Biodistribution in ICR mouse stomach at 0.74 MBq, iv measured after 60 mins by automatic gamma counter analysis; format: ADME, organism-based; settings: in vivo, 1 h
[23] = Biodistribution in ICR mouse heart at 0.74 MBq, iv measured after 10 mins by automatic gamma counter analysis; format: ADME, organism-based; settings: in vivo
[24] = Stability in saline measured for 60 to 150 mins by reversed-phase HPLC analysis; format: physicochemical; settings: buffer; time 60-150 min
[25] = Biodistribution in ICR mouse spleen at 0.74 MBq, iv measured after 2 mins by automatic gamma counter analysis; format: ADME, organism-based; settings: in vivo
[26] = Drug uptake in Sprague-Dawley rat brain at 10 to 17.6 MBq, iv treated for about 1 min by PET analysis; format: ADME, organism-based; settings: in vivo, dose 10-17.6 MBq
[27] = Drug uptake in brain of TNF-alpha-induced SIRS Sprague-Dawley rat model assessed as decrease in radioactivity at 9.9 to 14.8 MBq, iv measured upto 20 mins by PET analysis; format: ADME, organism-based; set-up: scale not given: the % may be the effect or the level left; settings: in vivo, dose 9.9-14.8 MBq
[28] = Drug metabolism in mouse liver assessed as parent compound remaining at 13.5 MBq, iv measured after 30 mins by HPLC analysis; format: ADME, organism-based; settings: read-out: Activity
[29] = Biodistribution in ICR mouse brain at 0.74 MBq, iv measured after 60 mins by automatic gamma counter analysis; format: ADME, organism-based; settings: in vivo, 1 h
[30] = Drug metabolism in mouse plasma assessed as parent compound remaining at 13.5 MBq, iv measured after 30 mins by HPLC analysis; format: ADME, organism-based; settings: read-out: Activity
[31] = Biodistribution in ICR mouse brain at 0.74 MBq, iv measured after 2 mins by automatic gamma counter analysis; format: ADME, organism-based; settings: in vivo
[32] = Drug uptake in thalamus of ICR mouse brain at 0.5 to 10 uM incubated for 30 mins by Phosphor Imager analysis; format: ADME, tissue-based; settings: 0.5 h, dose 0.5-10 µM
[33] = Biodistribution in ICR mouse spleen at 0.74 MBq, iv measured after 30 mins by automatic gamma counter analysis; format: ADME, organism-based; settings: in vivo, 0.5 h
[34] = Drug uptake in Sprague-Dawley rat brain assessed as reduction in radioactivity at 10 to 17.6 MBq, iv pretreated with 1-(5-(3-fluorophenyl)-4,5-dihydro-1H-pyrazol-1-yl)-2,2-dimethylpropan-1-one followed by compound administration measured upto 30 mins by PET analysis; format: ADME, organism-based; set-up: scale not given: the % may be the effect or the level left; settings: in vivo, 0.5 h, dose 10-17.6 MBq
[35] = Biodistribution in ICR mouse heart at 0.74 MBq, iv measured after 60 mins by automatic gamma counter analysis; format: ADME, organism-based; settings: in vivo, 1 h
[36] = Drug uptake in thalamus of ICR mouse brain assessed as reduction in radioactivity incubated for 30 mins in presence of 0.5 uM of 1-(5-(3-fluorophenyl)-4,5-dihydro-1H-pyrazol-1-yl)-2,2-dimethylpropan-1-one by Phosphor Imager analysis; format: ADME, tissue-based; set-up: scale not given: the % may be the effect or the level left; settings: 0.5 h
[37] = Drug uptake in thalamus of ICR mouse brain assessed as reduction in radioactivity incubated for 30 mins in presence of 1-(5-(3-fluorophenyl)-4,5-dihydro-1H-pyrazol-1-yl)-2,2-dimethylpropan-1-one by Phosphor Imager analysis; format: ADME, tissue-based; settings: 0.5 h, dose 0.5-10 µM
[38] = Drug uptake in Sprague-Dawley rat bone at 10 to 17.6 MBq, iv treated upto 30 mins by PET analysis; format: ADME, organism-based, Bone element; settings: in vivo, 0.5 h, dose 10-17.6 MBq
[39] = Biodistribution in ICR mouse stomach at 0.74 MBq, iv measured after 2 mins by automatic gamma counter analysis; format: ADME, organism-based; settings: in vivo
[40] = Lipophilicity, logD of compound at pH 7.4 by shake flask method; format: physicochemical; settings: buffer
[41] = Biodistribution in ICR mouse brain at 0.74 MBq, iv measured after 10 mins by automatic gamma counter analysis; format: ADME, organism-based; settings: in vivo
[42] = Drug uptake in Sprague-Dawley rat brain assessed as reduction in radioactivity at 10 to 17.6 MBq, iv pretreated with GSK'547 followed by compound administration measured upto 30 mins by PET analysis; format: ADME, organism-based; set-up: scale not given: the % may be the effect or the level left; settings: in vivo, 0.5 h, dose 10-17.6 MBq
[43] = Drug uptake in thalamus of ICR mouse brain assessed as reduction in radioactivity incubated for 30 mins in presence of GSK'547 by Phosphor Imager analysis; format: ADME, tissue-based; settings: 0.5 h

In the case of `CC(C)(C)C(=O)N1N=CCC1c1cccc([18F])c1` (stereo not drawn), the Drug uptake [1] is reported as 30.6 % ID/g, the Drug uptake [2] is reported as 1.99 % ID/g and the Drug uptake [3] is reported as 0.57 % ID/g. The remaining at 0.5 h [4] was 22.4%, the Drug uptake [5] was 10.83 % ID/g and the Retention_time [6] was 21.84 min. The Activity [7] was ~ 5%, the Drug metabolism [8] was “Metabolite_Detected” and the Drug metabolism [9] was “Metabolite_Detected”. The Drug uptake [10] was 6.65 % ID/g, the Drug uptake [11] was 2.58 % ID/g and the Drug uptake [12] was 1.03 % ID/g. It also gave a Drug uptake [13] of 7.23 % ID/g, a Drug uptake [14] of 0.44 % ID/g and a Drug uptake [15] of 0.41 % ID/g. For the same molecule, the Activity [16] was ~ 18%, the Drug uptake [17] was 16.41 % ID/g and the Drug uptake [18] was 1.51 % ID/g. The Stability [19] was greater than 98%, the Drug uptake [20] was 3.3 % ID/g and the Drug uptake [21] was 4.92 % ID/g. For the same molecule, the Drug uptake [22] was 0.18 % ID/g, the Drug uptake [23] was 3.27 % ID/g and the Stability [24] was greater than 99%. For the same molecule, the Drug uptake [25] was 3.17 % ID/g, the SUVmax [26] was 1.3 and the Activity [27] was 9.1%. For the same molecule, the remaining at 0.5 h [28] was 1.5%, the Drug uptake [29] was 0.21 % ID/g and the remaining at 0.5 h [30] was 1.2%. For the same molecule, the Drug uptake [31] was 4.89 % ID/g, the Drug uptake [32] was “Active” and the Drug uptake [33] was 0.91 % ID/g. For the same molecule, the Activity [34] was 21.7%, the Drug uptake [35] was 0.5 % ID/g and the Activity [36] was ~ 5%. For the same molecule, the Activity [37] was “Dose-Dependent Effect”, the Drug uptake [38] was “Not Active” and the Drug uptake [39] was 0.9 % ID/g. For the same molecule, the logD [40] was 2.25, the Drug uptake [41] was 1.36 % ID/g and the Activity [42] was 25.9%. The Activity [43] was “Dose-Dependent Effect”.
